The source made the active and inactive calls. The rule behind the calls is not given here.
Experiments:
[1] = target: GTPase NRas (Homo sapiens) (UniProt P01111); test: Inhibition of NRAS in human PANC1 cells assessed as decrease in NRAS mRNA level at 15 nM followed by 7.2 J/cm2 irradiation after 4 hrs by qRT-PCR analysis; format: cell-based
[2] = Drug uptake in human PANC1 cells in presence of dynamin-inhibitor dynasore; format: ADME, cell-based; conditions: panc-1
HEK293 = test: Cytotoxicity against human HEK293 cells assessed as reduction in metabolic activity after 24 to 72 hrs in dark followed by photoirradiation in presence of NADH by resazurin assay; format: ADME, cell-based
Quadruplex DNA [3] = test: Binding affinity to human KRAS utr-z RNA g-quadruplex assessed as compound-RNA complex stoichiometry ratio of 9:1 by Job's plot analysis; format: nucleic-acid assay
PANC-1 [4] = test: Cytotoxicity against human PANC1 cells assessed as reduction in metabolic activity at 20 nM after 24 to 72 hrs in dark followed by photoirradiation in presence of NADH and NAC by resazurin assay; format: functional, cell-based
Quadruplex DNA [5] = test: Binding affinity to human KRAS utr-z RNA g-quadruplex by fluorescence spectroscopy; format: nucleic-acid assay
[6] = Drug uptake in human PANC1 cells at 5 uM and 4 degree C after 16 hrs by FACS analysis relative to 37 degree C; format: ADME, cell-based; conditions: panc-1, 16 h
PANC-1 [7] = test: Induction of apoptosis in human PANC1 cells assessed as viable cells at 10 nM and photoirradiated at 7.2 J/cm2 measured after 6 to 24 hrs by annexin-V-propidium iodide staining based FACScalibur flow cytometry analysis (reference value: 85.5 %); format: functional; conditions: PANC-1, light or radiation study, read-out: Activity
[8] = Drug uptake in mouse NIH/3T3 cells at 5 uM and 4 degree C after 16 hrs by FACS analysis relative to 37 degree C; format: ADME, cell-based; conditions: nih3t3, 16 h
PANC-1 [9] = test: Cytotoxicity against human PANC1 cells assessed as reduction in metabolic activity after 48 hrs in dark followed by photoirradiation in presence of NADH by resazurin assay; format: functional, cell-based; conditions: PANC-1, light or radiation study
PANC-1 [10] = test: Induction of apoptosis in human PANC1 cells assessed as necrotic cells at 5 nM and photoirradiated at 7.2 J/cm2 measured after 6 to 24 hrs by annexin-V-propidium iodide staining based FACScalibur flow cytometry analysis (reference value: 3.2 %); format: functional
Quadruplex DNA [11] = test: Binding affinity to NRAS RNA g-quadruplex (unknown origin) by fluorescence spectroscopy; format: nucleic-acid assay
PANC-1 [12] = test: Induction of apoptosis in human PANC1 cells assessed as late apoptotic cells at 5 nM and photoirradiated at 7.2 J/cm2 measured after 6 to 24 hrs by annexin-V-propidium iodide staining based FACScalibur flow cytometry analysis (reference value: 3.6 %); format: functional
Quadruplex DNA [13] = test: Binding affinity to human KRAS utr-c RNA g-quadruplex by fluorescence spectroscopy; format: nucleic-acid assay
[14] = target: GTPase KRas (Homo sapiens) (UniProt P01116); test: Inhibition of KRAS in human PANC1 cells assessed as decrease in KRAS mRNA level at 15 nM followed by 7.2 J/cm2 irradiation after 4 hrs by qRT-PCR analysis; format: cell-based
[15] = Drug uptake in human HEK293 cells at 5 uM and 4 degree C after 16 hrs by FACS analysis relative to 37 degree C; format: ADME, cell-based; conditions: hek293, 16 h
PANC-1 [16] = test: Induction of apoptosis in human PANC1 cells assessed as cleavage of caspase 3 when photoirradiated at 7.2 J/cm2 by Western blot analysis; format: functional, cell-based
PANC-1 [17] = test: Induction of apoptosis in human PANC1 cells assessed as viable cells at 15 nM and photoirradiated at 7.2 J/cm2 measured after 6 to 24 hrs by annexin-V-propidium iodide staining based FACScalibur flow cytometry analysis (reference value: 85.5 %); format: functional; conditions: PANC-1, light or radiation study, read-out: Activity
PANC-1 [18] = test: Induction of apoptosis in human PANC1 cells assessed as early apoptotic cells at 15 nM and photoirradiated at 7.2 J/cm2 measured after 6 to 24 hrs by annexin-V-propidium iodide staining based FACScalibur flow cytometry analysis (reference value: 7.8 %); format: functional
[19] = Drug localization in cytoplasm of human PANC1 cells at 5 uM after 6 hrs by Hoechst staining based confocal microscopy; format: ADME, subcellular; conditions: panc-1, 6 h
PANC-1 [20] = test: Induction of apoptosis in human PANC1 cells assessed as early apoptotic cells at 5 nM and photoirradiated at 7.2 J/cm2 measured after 6 to 24 hrs by annexin-V-propidium iodide staining based FACScalibur flow cytometry analysis (reference value: 7.8 %); format: functional
[21] = Drug uptake in human PANC1 cells at 5 uM after 2 hrs by FACS analysis; format: ADME, cell-based; conditions: panc-1, 2 h
[22] = Drug uptake in human PANC1 cells at 5 uM after 16 hrs by FACS analysis; format: ADME, cell-based; conditions: panc-1, 16 h
PANC-1 [23] = test: Induction of apoptosis in human PANC1 cells assessed as early apoptotic cells at 10 nM and photoirradiated at 7.2 J/cm2 measured after 6 to 24 hrs by annexin-V-propidium iodide staining based FACScalibur flow cytometry analysis (reference value: 7.8 %); format: functional
PANC-1 [24] = test: Induction of apoptosis in human PANC1 cells assessed as late apoptotic cells at 15 nM and photoirradiated at 7.2 J/cm2 measured after 6 to 24 hrs by annexin-V-propidium iodide staining based FACScalibur flow cytometry analysis (reference value: 3.6 %); format: functional
PANC-1 [25] = test: Induction of apoptosis in human PANC1 cells assessed as viable cells at 5 nM and photoirradiated at 7.2 J/cm2 measured after 6 to 24 hrs by annexin-V-propidium iodide staining based FACScalibur flow cytometry analysis (reference value: 85.5 %); format: functional; conditions: PANC-1, light or radiation study, read-out: Activity
[26] = target: GTPase KRas (Homo sapiens) (UniProt P01116); test: Inhibition of KRAS in human PANC1 cells assessed as downregulation of KRAS expression at 15 nM followed by 7.2 J/cm2 irradiation after 4 hrs by Western blot analysis (reference value: 5 %); format: cell-based
PANC-1 [27] = test: Induction of apoptosis in human PANC1 cells assessed as cleavage of caspase 7 when photoirradiated at 7.2 J/cm2 by Western blot analysis; format: functional, cell-based
[28] = Aggregation property of compound at > 40 degree C; format: physicochemical
PANC-1 [29] = test: Induction of apoptosis in human PANC1 cells assessed as late apoptotic cells at 10 nM and photoirradiated at 7.2 J/cm2 measured after 6 to 24 hrs by annexin-V-propidium iodide staining based FACScalibur flow cytometry analysis (reference value: 3.6 %); format: functional
PANC-1 [30] = test: Induction of apoptosis in human PANC1 cells assessed as necrotic cells at 10 nM and photoirradiated at 7.2 J/cm2 measured after 6 to 24 hrs by annexin-V-propidium iodide staining based FACScalibur flow cytometry analysis (reference value: 3.2 %); format: functional
[31] = Binding affinity to NRAS RNA g-quadruplex (unknown origin) at 40 degree C by SPR analysis; format: nucleic-acid assay
[32] = target: GTPase KRas (Homo sapiens) (UniProt P01116); test: Inhibition of KRAS in human PANC1 cells assessed as downregulation of KRAS expression at 15 nM after 4 hrs by Western blot analysis; format: cell-based
[33] = target: GTPase NRas (Homo sapiens) (UniProt P01111); test: Inhibition of NRAS in human PANC1 cells assessed as downregulation of NRAS expression at 15 nM after 4 hrs by Western blot analysis; format: cell-based
MIA PaCa-2 = test: Cytotoxicity against human MIAPaCa2 cells harboring G12C point mutation assessed as reduction in metabolic activity after 48 hrs in dark followed by photoirradiation in presence of NADH by resazurin assay; format: functional, cell-based
PANC-1 [34] = test: Induction of apoptosis in human PANC1 cells assessed as cleavage of PARP1 when photoirradiated at 7.2 J/cm2 by Western blot analysis; format: functional, cell-based
Quadruplex DNA [35] = test: Binding affinity to human KRAS utr-z RNA g-quadruplex at 40 degree C by SPR analysis; format: nucleic-acid assay
[36] = target: GTPase NRas (Homo sapiens) (UniProt P01111); test: Inhibition of NRAS in human PANC1 cells assessed as downregulation of NRAS expression at 15 nM followed by 7.2 J/cm2 irradiation after 4 hrs by Western blot analysis (reference value: 25 %); format: cell-based
PANC-1 [37] = test: Cytotoxicity against human PANC1 cells assessed as reduction in metabolic activity at 20 nM after 24 to 72 hrs in dark followed by photoirradiation in presence of NADH by resazurin assay; format: functional, cell-based
Quadruplex DNA [38] = test: Binding affinity to human KRAS utr-1 RNA g-quadruplex by fluorescence spectroscopy; format: nucleic-acid assay
PANC-1 [39] = test: Induction of apoptosis in human PANC1 cells assessed as necrotic cells at 15 nM and photoirradiated at 7.2 J/cm2 measured after 6 to 24 hrs by annexin-V-propidium iodide staining based FACScalibur flow cytometry analysis (reference value: 3.2 %); format: functional

GTPase NRas (Homo sapiens), sequence (P01111 whole entry): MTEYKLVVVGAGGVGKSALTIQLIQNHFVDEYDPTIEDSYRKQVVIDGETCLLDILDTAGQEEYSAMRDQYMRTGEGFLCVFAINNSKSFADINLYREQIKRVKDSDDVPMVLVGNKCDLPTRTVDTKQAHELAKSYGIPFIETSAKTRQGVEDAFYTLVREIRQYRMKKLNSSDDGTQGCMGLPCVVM
GTPase KRas (Homo sapiens), sequence (P01116 whole entry, looked up): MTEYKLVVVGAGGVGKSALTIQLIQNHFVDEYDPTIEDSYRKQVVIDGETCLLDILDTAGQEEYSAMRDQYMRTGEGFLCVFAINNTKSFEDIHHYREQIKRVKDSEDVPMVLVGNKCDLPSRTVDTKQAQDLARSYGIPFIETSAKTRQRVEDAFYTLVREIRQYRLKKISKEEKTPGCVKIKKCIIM

CCCCCCCCCCCCCCCCCC[n+]1ccc(-c2c3nc(c(-c4cc[n+](C)cc4)c4ccc([nH]4)c(-c4cc[n+](C)cc4)c4nc(c(-c5cc[n+](C)cc5)c5ccc2[nH]5)C=C4)C=C3)cc1.[I-].[I-].[I-].[I-]
inhibition [1]: Active | Drug uptake [2]: Not Active | Activity (HEK293): Non-Toxic | Activity (Quadruplex DNA [3]): Active | Activity (PANC-1 [4]): inactive | Kd (Quadruplex DNA [5]): 99 nM | Drug uptake [6]: 47% | viability at 0.01 µM (PANC-1 [7]): 81.5% | Drug uptake [8]: Active | EC50 (PANC-1 [9]): 16.4 nM | Activity (PANC-1 [10]): 2.1% | Kd (Quadruplex DNA [11]): 32 nM | Activity (PANC-1 [12]): 12.4% | Kd (Quadruplex DNA [13]): 188 nM | inhibition [14]: Active | Drug uptake [15]: Active | Activity (PANC-1 [16]): Active | viability at 0.015 µM (PANC-1 [17]): 75.1% | Activity (PANC-1 [18]): 3.53% | Drug uptake [19]: Active | Activity (PANC-1 [20]): 7.35% | Drug uptake [21]: Active | Drug uptake [22]: Active | Activity (PANC-1 [23]): 3.03% | Activity (PANC-1 [24]): 15.63% | viability at 0.005 µM (PANC-1 [25]): 78.2% | inhibition [26]: 20% | Activity (PANC-1 [27]): Active | Activity [28]: Active | Activity (PANC-1 [29]): 11.43% | Activity (PANC-1 [30]): 4.03% | Kd [31]: 56 to 98 nM | inhibition [32]: inactive | inhibition [33]: inactive | Activity (MIA PaCa-2): Active | Activity (PANC-1 [34]): Active | Kd (Quadruplex DNA [35]): 82 to 202 nM | inhibition [36]: 50% | Activity (PANC-1 [37]): Active | Kd (Quadruplex DNA [38]): 150 nM | Activity (PANC-1 [39]): 5.77%

From ChEMBL document CHEMBL4376882, “Photodynamic Therapy for ras-Driven Cancers: Targeting G-Quadruplex RNA Structures with Bifunctional Alkyl-Modified Porphyrins” (J Med Chem, 2020)
